For one assay, the system named is AEA cellular uptake (U937 cells). Nature of the assay: [3H]-AEA cellular uptake inhibition in U937 cells. The class given is cell-based. The settings on record: Homo sapiens, U-937, U937 cells, final 100 nM AEA with 0.5 nM [3H]-AEA, 15 min at 37° C.; read-out: AEA uptake IC50. On the procedure: [^3H]-AEA Cellular Uptake
Screening for AEA cellular uptake inhibition was performed in a semi-automated procedure: Pipetting and washing steps were performed by a Biomek3000 laboratory workstation. First, required amounts of U937 cells were centrifuged at 100×g for 5 min and resuspended in RPMI (37° C.) to a final concentration of 2×10^6 cells/mL. Then, 250 μL of cell suspension (0.5×10^6 cells per sample) were transferred into AquaSil™ silanized glass vials (Chromacol 1.1-MTV) in 96-well format. After addition of 5 μL vehicle (DMSO) or compounds the cells were incubated at 37° C. for 15 min. As positive controls OMDM-2 and UCM707 were used at 10 μM in each run. The ETI-T compounds were measured at up to 7 concentrations in triplicates from 100 pM-100 μM. After pre-incubation, a mixture of 0.5 nM [ethanolamine-1-^3H]-AEA, (60 Ci/mmol) and 99.5 nM of cold AEA (final 100 nM) was added and samples were incubated at 37° C. for another 15 min. The reaction was stopped by rapid filtration over UniFilter-96 GF/C filters (PerkinElmer) pre-soaked with PBS 0.25% BSA. Cells were washed three times with 100 μL ice-cold PBS buffer containing 1% fatty acid free BSA. After drying, 45 μL MicroScint 20 scintillation cocktail (PerkinElmer, Waltham, Mass., US) was added to the wells and the plate was sealed. Radioactivity was measured by liquid scintillation counting on a PerkinElmer Wallac Trilux MicroBeta 1450 during 2 min. Non-specific binding of [^3H]AEA (100 nM) to the glass vials was never higher than 10%. IC50 values were calculated by GraphPad® by non-linear regression using the built-in log(inhibitor) vs. response-variable slope (four parameters) function.
The term IC50 denotes the concentration that gives 50% inhibition. On to `Cc1ccc(/N=C2\S/C(=C\c3ccc4c(c3)OCCO4)C(=O)N2CC(C)C)cc1` [24_A_X, (2Z,5Z)-2-(p-tolylimino)-5-((2,3-dihydrobenzo[b][1,4]dioxin-6-yl)methylene)-3-isobutylthiazolidin-4-one], for which the concentration for half-maximal inhibition (IC50) was determined as 721 nM.
The same measure, in the same setting: in the case of `COc1ccc(C/N=C2\S/C(=C\c3ccc(CO)cc3)C(=O)N2c2ccccc2)cc1` [22_Q_N, (2Z,5Z)-5-(4-(hydroxymethyl)benzylidene)-2-(4-methoxybenzylimino)-3-phenylthiazolidin-4-one] it was 713 nM.
Same read-out and setting: in the case of `COCc1ccc(/C=C2\S/C(=N\c3ccccc3)N(c3ccccc3)C2=O)cc1` [compound 34, (2Z,5Z)-5-(4-(methoxymethyl)benzylidene)-3-phenyl-2-(phenylimino)thiazolidin-4-one] it was greater than 10000 nM.
Take `CCCCCCCCCCCCN1C(=O)/C(=C/c2ccc(CO)cc2)S/C1=N\c1ccc(C)cc1` [04_A_V, (2Z,5Z)-5-(4-(hydroxymethyl)benzylidene)-2-(p-tolylimino)-3-dodecylthiazolidin-4-one]: the IC50 was greater than 10000 nM.
Consider `O=C1/C(=C/c2ccccc2)S/C(=N\Cc2ccccc2)N1CCc1ccccc1` [23_C_O, (2Z,5Z)-5-benzylidene-2-(benzylimino)-3-phenethylthiazolidin-4-one], for which the concentration for half-maximal inhibition (IC50) was found to be 1190 nM.
As to `COCc1cccc(/C=C2\S/C(=N\Cc3ccccc3)N(CCCc3ccccc3)C2=O)c1` [15_C_K, (2Z,5Z)-5-(3-(methoxymethyl)benzylidene)-2-(benzylimino)-3-(3-phenylpropyl)thiazolidin-4-one], the half-maximal inhibitory concentration (IC50) turned out to be 692 nM.
Still for that read-out and setting: in the case of `O=C1/C(=C/c2ccc3c(c2)OCCO3)S/C(=N\Cc2cccnc2)N1c1ccccc1` [24_S_N, (2Z,5Z)-2-((pyridin-3-yl)methylimino)-5-((2,3-dihydrobenzo[b][1,4]dioxin-7-yl)methylene)-3-phenylthiazolidin-4-one] it was 1430 nM; in that of `O=C1/C(=C/c2ccc3c(c2)OCCO3)S/C(=N\CCCc2ccccc2)N1c1ccccc1` [24_K_N, (2Z,5Z)-2-(3-phenylpropylimino)-5-((2,3-dihydrobenzo[b][1,4]dioxin-7-yl)methylene)-3-phenylthiazolidin-4-one], 1620 nM; in that of `CC(C)(C)c1ccc(C/N=C2\S/C(=C\c3ccc(CO)cc3)C(=O)N2c2ccccc2)cc1` [22_R_N, (2Z,5Z)-5-(4-(hydroxymethyl)benzylidene)-2-(4-tert-butylbenzylimino)-3-phenylthiazolidin-4-one], 5180 nM.
The same measure, in the same setting: in the case of `CCCCN1C(=O)/C(=C/c2ccc3[nH]cnc3c2)S/C1=N\Cc1ccccc1` [04_C_G, (2Z,5Z)-5-((1H-benzo[d]imidazol-5-yl)methylene)-2-(benzylimino)-3-butylthiazolidin-4-one] it was 1060 nM.
In the case of `O=C1/C(=C/c2ccc3[nH]ccc3c2)S/C(=N\CCc2ccccc2)N1c1ccccc1` [03_U_N, (2Z,5Z)-5-((1H-indol-5-yl)methylene)-2-(phenethylimino)-3-phenylthiazolidin-4-one], the 50% inhibitory concentration (IC50) turned out to be 509 nM.
The same measure, in the same setting: in the case of `O=C1/C(=C/c2ccc3c(c2)OCCO3)S/C(=N\c2ccc(F)cc2)N1c1ccc(Cl)cc1` [24_B_L, (2Z,5Z)-2-(4-fluorophenylimino)-3-(4-chlorophenyl)-5-((2,3-dihydrobenzo[b][1,4]dioxin-6-yl)methylene)thiazolidin-4-one] it was 663 nM; in that of `C/N=C1\S/C(=C\c2ccc(CO)cc2)C(=O)N1c1ccccc1` [22_E_N, (2Z,5Z)-5-(4-(hydroxymethyl)benzylidene)-2-(methylimino)-3-phenylthiazolidin-4-one], greater than 10000 nM; in that of `Cc1ccc(N2C(=O)/C(=C/c3ccc4[nH]cnc4c3)S/C2=N\c2ccc(F)cc2)cc1` [32_B_A, (2Z,5Z)-5-((1H-benzo[d]imidazol-5-yl)methylene)-2-(4-fluorophenylimino)-3-p-tolylthiazolidin-4-one], 632 nM.
Same read-out and setting: in the case of `CCCCN1C(=O)/C(=C/c2ccc(CO)cc2)S/C1=N\Cc1ccccc1` [22_C_G, (2Z,5Z)-5-(4-(hydroxymethyl)benzylidene)-2-(benzylimino)-3-butylthiazolidin-4-one] it was 1280 nM.
Consider `O=C1/C(=C/c2ccccc2)S/C(=N\c2ccccc2)N1CCCc1ccccc1` [23_N_K, (2Z,5Z)-5-benzylidene-2-(phenylimino)-3-(3-phenylpropyl)thiazolidin-4-one], for which the IC50 stood at 1120 nM.
On the same count and under the same terms, in the case of `O=C1/C(=C/c2ccc3[nH]ccc3c2)S/C(=N\c2ccccc2)N1Cc1ccco1` [03_N_M, (2Z,5Z)-5-((1H-indol-5-yl)methylene)-3-((furan-2-yl)methyl)-2-(phenylimino)thiazolidin-4-one] it was 879 nM.
With `CC(C)CN1C(=O)/C(=C/c2ccccc2)S/C1=N\c1ccc(F)cc1` [23_B_X, (2Z,5Z)-2-(4-fluorophenylimino)-5-benzylidene-3-isobutylthiazolidin-4-one], the half-inhibitory concentration (IC50) amounted to 1130 nM.
For the compound `Cc1ccc(N2C(=O)/C(=C/c3ccc4[nH]ccc4c3)S/C2=N\c2ccc(F)cc2)cc1` [03_B_A, (2Z,5Z)-5-((1H-indol-5-yl)methylene)-2-(4-fluorophenylimino)-3-p-tolylthiazolidin-4-one], the half-inhibitory concentration (IC50) came out at 760 nM.

Staying with this assay, now noted: Homo sapiens, U-937, U937 cells, final 100 nM AEA with 0.5 nM [3H]-AEA, 15 min at 37° C.; read-out: AEA uptake inhibition IC50.
As for `COc1ccc(/C=C2\S/C(=N\c3ccccc3)N(Cc3ccccc3)C2=O)cc1`, the IC50 was determined as 2290 nM.
The same measure, in the same setting: in the case of `Cc1ccc(/N=C2\S/C(=C\c3ccc(CO)cc3)C(=O)N2c2ccccc2)nc1` [drawing 143] it was 1450 nM; in that of `O=C1/C(=C/c2ccc3ncsc3c2)S/C(=N\c2ccccc2)N1c1ccccc1` [drawing 129], 291 nM; in that of `COCc1cccc(/C=C2\S/C(=N\c3ccccc3)N(c3ccccc3)C2=O)c1` [drawing 117], 1000 nM.
Take `O=C1/C(=C/c2ccccc2)S/C(=N\c2ccccc2)N1c1ccccc1`: the IC50 was found to be 2780 nM.
The same measure, in the same setting: in the case of `CSc1ccc(/C=C2\S/C(=N\c3ccccc3)N(c3ccccc3)C2=O)cc1` it was 9940 nM.
Take `O=C1/C(=C/c2ccccc2)S/C(=N\Cc2ccccc2)N1c1ccccc1` [drawing 130]: the IC50 worked out at 180 nM.
Still for that read-out and setting: in the case of `COc1ccc(/C=C2\S/C(=N\c3ccccc3)N(c3ccccc3)C2=O)cn1` it was 15600 nM; in that of `O=C1/C(=C/c2ccc3occc3c2)S/C(=N\c2ccccc2)N1c1ccccc1`, 3260 nM; in that of `COc1ccc(/C=C2\S/C(=N\c3ccc(C)cn3)N(c3ccccc3)C2=O)cc1`, 2800 nM.
As to `O=C1/C(=C/c2ccc3[nH]cnc3c2)S/C(=N\c2ccccc2)N1Cc1ccco1`, the IC50 was found to be 1840 nM.
As for `COc1ccc(/C=C2\S/C(=N\c3ccccc3)N(Cc3ccco3)C2=O)cc1`, the concentration for half-maximal inhibition (IC50) was found to be 3180 nM.
On to `O=C1/C(=C/c2ccc3[nH]ccc3c2)S/C(=N\c2ccccc2)N1Cc1ccccc1`, for which the half-maximal inhibitory concentration (IC50) was found to be 610 nM.
On to `Cc1ccc(/N=C2\S/C(=C\c3ccc4[nH]cnc4c3)C(=O)N2c2ccccc2)cc1` [drawing 144], for which the IC50 worked out at 107 nM.
On the same count and under the same terms, in the case of `COc1cncc(/C=C2\S/C(=N\c3ccccc3)N(c3ccccc3)C2=O)c1` it was 6700 nM; in that of `CCCCN1C(=O)/C(=C/c2ccc(OC)cc2)S/C1=N\c1ccccc1`, 2270 nM.
For the compound `COc1ccnc(/C=C2\S/C(=N\c3ccccc3)N(c3ccccc3)C2=O)c1`, the half-maximal inhibitory concentration (IC50) was found to be 1600 nM.
Same read-out and setting: in the case of `COc1ccc(/C=C2\S/C(=N\c3ccc(C)cc3)N(c3ccccc3)C2=O)cc1` it was 5100 nM; in that of `COc1ccc(/N=C2\S/C(=C\c3ccc4[nH]ccc4c3)C(=O)N2c2ccccc2)cc1` [drawing 150], 1070 nM; in that of `O=C1/C(=C/c2ccc3[nH]cnc3c2)S/C(=N\Cc2ccccc2)N1c1ccccc1`, 2140 nM.
On the same count and under the same terms, in the case of `O=C1/C(=C/c2ccc3[nH]cnc3c2)S/C(=N\c2ccccc2)N1c1ccccc1` [drawing 109] it was 194 nM.
Same read-out and setting: in the case of `O=C1/C(=C/c2ccc3sccc3c2)S/C(=N\c2ccccc2)N1c1ccccc1` it was 4630 nM; in that of `O=C1/C(=C/c2ccc3cc[nH]c3c2)S/C(=N\c2ccccc2)N1c1ccccc1`, 2300 nM; in that of `O=C1/C(=C/c2ccccc2)S/C(=N\c2ccccc2)N1Cc1ccccc1`, 5420 nM.
`O=C1/C(=C/c2ccc(CO)cc2)S/C(=N\c2ccccc2)N1Cc1ccccc1` [drawing 156]: the IC50 was found to be 657 nM.
Still for that read-out and setting: in the case of `O=C1/C(=C/c2ccccc2)S/C(=N\c2ccccc2)N1Cc1ccco1` it was 1810 nM.

Still in this assay, the particulars now being: U937 cells, final 100 nM AEA with 0.5 nM [3H]-AEA, 15 min at 37° C.; read-out: AEA uptake IC50.
With `O=C1/C(=C/c2ccc(CO)cc2)S/C(=N\Cc2ccccc2)N1CCc1ccccc1` [22_C_O, (2Z,5Z)-5-(4-(hydroxymethyl)benzylidene)-2-(benzylimino)-3-phenethylthiazolidin-4-], the IC50 came out at 1200 nM.
On the same count and under the same terms, in the case of “(2Z,5Z)-5-((1H-benzo[d]imidazol-5-yl)methylene)-3-butyl-2-(phenylimino)thiazolidin-4- [03_N_G]” it was 677 nM.

These data come from US10155754B2, “Substituted 2-imino-1,3-thiazolidin-4-ones as N-arachidonoylethanolamine cellular uptake inhibitors” (UNIVERSITAT BERN, priority 2014, dated 2018).
